In patent US20250255848A1, “SUBSTITUTED 6,7-DIHYDRO-5H-BENZO[7]ANNULENE DERIVATIVES, PROCESSES FOR THEIR PREPARATION AND THERAPEUTIC USES THEREOF” (SANOFI, priority 2022, published 2025):

Biological target: ERα (Homo sapiens (Human), UniProt P03372)
Experiment: Estrogen receptor degradation activity: breast cancer cell ERα in cell western assay
Assay type: cell-based
Details: MCF7 cells; for % Degradation At 0.3 μM: 4 hours, normalised to fulvestrant 0.1 μM and DMSO; for DC50 / IC50: 4 hours post compound addition, concentration which degrades 50% of the estrogen receptor; for DC50: read-out: Degradation IC50
Procedure: Said test involves measuring the in vitro degradation activity of the compounds of the Table 1a.
The measurements of the degradation activities were made using a breast cancer cell ERα in cell western assay as described hereunder.
MCF7 cells (ATCC) were seeded in 384 wells microplate (collagen coated) at a concentration of 10000 cells/30 μL per well in red phenol free MEM alpha medium (invitrogen) containing 5% charcoal dextran striped FBS. The following day, 9 points serial 1:5 dilution of each compound was added to the cells in 2.5 μL at final concentrations ranging from 0.3-0.0000018 μM (in table 2), or 0.1 μM for fulvestrant (using as positive control). At 4 hours post compound addition the cells were fixed by adding 25 μL of formalin (final concentration 5% formalin containing 0.1% triton) for 10 minutes at room temperature and then washed twice with PBS. Then, 50 μL of LI-COR blocking buffer containing 0.1% Triton was added to plate for 30 minutes at room temperature. LI-COR blocking buffer was removed and cells were incubated overnight at cold room with 50 μL anti-ER rabbit monoclonal antibody (Thermo scientific MA1-39540) diluted at 1:1000 in LI-COR blocking buffer containing 0.1% tween-20. Wells which were treated with blocking buffer but no antibody were used as background control. Wells were washed twice with PBS (0.1% tween-20) and incubated at 37° C. for 60 minutes in LI-COR (0.1% tween-20) containing goat anti-rabbit antibody Alexa 488 (1:1000) and Syto-64 a DNA dye (2 μM final concentration). Cells were then washed 3 times in PBS and scanned in ACUMEN explorer (TTP-Labtech). Integrated intensities in the green fluorescence and red fluorescence were measured to determine the levels of ERα and DNA respectively.
The degradation activity with respect to estrogen receptors in this test is given by the concentration which degrades 50% of the estrogen receptor (or IC50) in nM.
The % of ERα levels decrease were determined as follows: % inhibition=100*(1−(sample−fulvestrant:DMSO−fulvestrant)).

ERα, sequence (P03372 whole entry): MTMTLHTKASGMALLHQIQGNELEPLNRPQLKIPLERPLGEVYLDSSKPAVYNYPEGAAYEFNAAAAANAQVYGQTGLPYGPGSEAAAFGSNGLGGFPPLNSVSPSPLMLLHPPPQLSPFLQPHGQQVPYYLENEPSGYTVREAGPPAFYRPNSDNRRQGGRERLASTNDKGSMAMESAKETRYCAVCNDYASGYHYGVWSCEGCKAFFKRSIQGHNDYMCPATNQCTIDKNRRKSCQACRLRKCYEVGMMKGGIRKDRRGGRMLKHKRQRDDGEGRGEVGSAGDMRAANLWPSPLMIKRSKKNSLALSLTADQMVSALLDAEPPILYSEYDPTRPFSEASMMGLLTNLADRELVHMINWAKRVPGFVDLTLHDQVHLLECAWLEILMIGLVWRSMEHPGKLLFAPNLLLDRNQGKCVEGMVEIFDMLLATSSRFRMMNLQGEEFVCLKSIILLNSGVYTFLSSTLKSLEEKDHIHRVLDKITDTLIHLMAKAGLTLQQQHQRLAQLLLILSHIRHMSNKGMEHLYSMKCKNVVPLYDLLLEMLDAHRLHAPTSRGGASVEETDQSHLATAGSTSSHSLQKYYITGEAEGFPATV

Compound | % Degradation At 0.3 μM [%] | DC50 [nM] | IC50 [nM]
O=C(O)c1ccc2c(c1)CCCC(C1CC13CCC3)=C2c1ccc(C=C2CN(CCCF)C2)cc1 (single isomer, unassigned) [Compound 35, 9-(4-((1-(3-fluoropropyl)azetidin-3-ylidene)methyl)phenyl)-8-(spiro[2.3]hexan-1-yl)-6,7-dihydro-5H-benzo[7]annulene-3-carboxylic acid] | 91 | 0.3 | –
O=C(O)c1ccc2c(c1)CCCC(C1CC13CCC3)=C2c1ccc(C=C2CN(CCCF)C2)cc1 (single isomer, unassigned) [Compound 36, 9-(4-((1-(3-fluoropropyl)azetidin-3-ylidene)methyl)phenyl)-8-(spiro[2.3]hexan-1-yl)-6,7-dihydro-5H-benzo[7]annulene-3-carboxylic acid] | 92 | 0.2 | –
O=C(O)c1ccc2c(c1)CCCC(c1ccc(Cl)cc1Cl)=C2c1ccc(C=C2CN(CC(F)CF)C2)cc1 (single isomer, unassigned) [Compound 69, 8-(2,4-dichlorophenyl)-9-(4-((1-(2,3-difluoropropyl)azetidin-3-ylidene)methyl)phenyl)-6,7-dihydro-5H-benzo[7]annulene-3-carboxylic acid] | 74 | 1.3 | –
O=C(O)c1ccc2c(c1)CCCC(c1ccc(Cl)cc1Cl)=C2c1ccc(C=C2CN(CC(F)CF)C2)cc1 (single isomer, unassigned) [Compound 70, 8-(2,4-dichlorophenyl)-9-(4-((1-(2,3-difluoropropyl)azetidin-3-ylidene)methyl)phenyl)-6,7-dihydro-5H-benzo[7]annulene-3-carboxylic acid] | 81 | 1.8 | –
Cc1cccc(C(F)(F)F)c1C1=C(c2ccc(C=C3CN(CCCF)C3)cc2)c2ccc(C(=O)O)cc2CCC1 [Compound 1, 9-(4-((1-(3-fluoropropyl)azetidin-3-ylidene)methyl)phenyl)-8-(2-methyl-6-(trifluoromethyl)phenyl)-6,7-dihydro-5H-benzo[7]annulene-3-carboxylic acid] | 92 | – | 0.3
O=C(O)c1ccc2c(c1)CCCC(c1ccc(F)c(F)c1C(F)(F)F)=C2c1ccc(C=C2CN(CCCF)C2)cc1 [Compound 2, 8-(3,4-difluoro-2-(trifluoromethyl)phenyl)-9-(4-((1-(3-fluoropropyl)azetidin-3-ylidene)methyl)phenyl)-6,7-dihydro-5H-benzo[7]annulene-3-carboxylic acid] | 90 | – | 1
COc1c(C)cccc1C1=C(c2ccc(C=C3CN(CCCF)C3)cc2)c2ccc(C(=O)O)cc2CCC1 [Compound 3, 9-(4-((1-(3-fluoropropyl)azetidin-3-ylidene)methyl)phenyl)-8-(2-methoxy-3-methylphenyl)-6,7-dihydro-5H-benzo[7]annulene-3-carboxylic acid] | 90 | – | 0.7
COc1cccc(C)c1C1=C(c2ccc(C=C3CN(CCCF)C3)cc2)c2ccc(C(=O)O)cc2CCC1 [Compound 4, 9-(4-((1-(3-fluoropropyl)azetidin-3-ylidene)methyl)phenyl)-8-(2-methoxy-6-methylphenyl)-6,7-dihydro-5H-benzo[7]annulene-3-carboxylic acid] | 90 | – | 1.1
CCc1c(C2=C(c3ccc(C=C4CN(CCCF)C4)cc3)c3ccc(C(=O)O)cc3CCC2)cccc1C(F)(F)F [Compound 5, 8-(2-ethyl-3-(trifluoromethyl)phenyl)-9-(4-((1-(3-fluoropropyl)azetidin-3-ylidene)methyl)phenyl)-6,7-dihydro-5H-benzo[7]annulene-3-carboxylic acid] | 93 | – | 0.3
COc1cccc(C(F)(F)F)c1C1=C(c2ccc(C=C3CN(CCCF)C3)cc2)c2ccc(C(=O)O)cc2CCC1 [Compound 6, 9-(4-((1-(3-fluoropropyl)azetidin-3-ylidene)methyl)phenyl)-8-(2-methoxy-6-(trifluoromethyl)phenyl)-6,7-dihydro-5H-benzo[7]annulene-3-carboxylic acid] | 91 | – | 0.3
COc1c(F)ccc(C)c1C1=C(c2ccc(C=C3CN(CCCF)C3)cc2)c2ccc(C(=O)O)cc2CCC1 [Compound 7, 8-(3-fluoro-2-methoxy-6-methylphenyl)-9-(4-((1-(3-fluoropropyl)azetidin-3-ylidene)methyl)phenyl)-6,7-dihydro-5H-benzo[7]annulene-3-carboxylic acid] | 94 | – | 0.5
CCc1cccc(C2=C(c3ccc(C=C4CN(CCCF)C4)cc3)c3ccc(C(=O)O)cc3CCC2)c1C(F)(F)F [Compound 8, 8-(3-ethyl-2-(trifluoromethyl)phenyl)-9-(4-((1-(3-fluoropropyl)azetidin-3-ylidene)methyl)phenyl)-6,7-dihydro-5H-benzo[7]annulene-3-carboxylic acid] | 93 | – | 0.8
O=C(O)c1ccc2c(c1)CCCC(c1c(F)cccc1OC(F)(F)F)=C2c1ccc(C=C2CN(CCCF)C2)cc1 [Compound 9, 8-(2-fluoro-6-(trifluoromethoxy)phenyl)-9-(4-((1-(3-fluoropropyl)azetidin-3-ylidene)methyl)phenyl)-6,7-dihydro-5H-benzo[7]annulene-3-carboxylic acid] | 96 | – | 0.6
Cc1cc(C)c(C2=C(c3ccc(C=C4CN(CCCF)C4)cc3)c3ccc(C(=O)O)cc3CCC2)c(C)c1 [Compound 10, 9-(4-((1-(3-fluoropropyl)azetidin-3-ylidene)methyl)phenyl)-8-mesityl-6,7-dihydro-5H-benzo[7]annulene-3-carboxylic acid] | 93 | – | 0.5
Cc1cc(C)c(C2=C(c3ccc(C=C4CN(CCCF)C4)cc3)c3ccc(C(=O)O)cc3CCC2)c(Cl)c1 [Compound 11, 8-(2-chloro-4,6-dimethylphenyl)-9-(4-((1-(3-fluoropropyl)azetidin-3-ylidene)methyl)phenyl)-6,7-dihydro-5H-benzo[7]annulene-3-carboxylic acid] | 92 | – | 0.4
Cc1ccc(C2=C(c3ccc(C=C4CN(CCCF)C4)cc3)c3ccc(C(=O)O)cc3CCC2)c(C)c1F [Compound 12, 8-(3-fluoro-2,4-dimethylphenyl)-9-(4-((1-(3-fluoropropyl)azetidin-3-ylidene)methyl)phenyl)-6,7-dihydro-5H-benzo[7]annulene-3-carboxylic acid] | 92 | – | 0.7
Cc1ccc(C2=C(c3ccc(C=C4CN(CCCF)C4)cc3)c3ccc(C(=O)O)cc3CCC2)c(C)c1Cl [Compound 13, 8-(3-chloro-2,4-dimethylphenyl)-9-(4-((1-(3-fluoropropyl)azetidin-3-ylidene)methyl)phenyl)-6,7-dihydro-5H-benzo[7]annulene-3-carboxylic acid] | 91 | – | 0.4
COc1cc(C)cc(C)c1C1=C(c2ccc(C=C3CN(CCCF)C3)cc2)c2ccc(C(=O)O)cc2CCC1 [Compound 14, 9-(4-((1-(3-fluoropropyl)azetidin-3-ylidene)methyl)phenyl)-8-(2-methoxy-4,6-dimethylphenyl)-6,7-dihydro-5H-benzo[7]annulene-3-carboxylic acid] | 91 | – | 0.6
CC(F)(F)c1cc(F)ccc1C1=C(c2ccc(C=C3CN(CCCF)C3)cc2)c2ccc(C(=O)O)cc2CCC1 [Compound 15, 8-(2-(1,1-difluoroethyl)-4-fluorophenyl)-9-(4-((1-(3-fluoropropyl)azetidin-3-ylidene)methyl)phenyl)-6,7-dihydro-5H-benzo[7]annulene-3-carboxylic acid] | 91 | – | 0.4
O=C(O)c1ccc2c(c1)CCCC(c1c(Cl)cccc1C(F)(F)F)=C2c1ccc(C=C2CN(CCCF)C2)cc1 [Compound 16, 8-(2-chloro-6-(trifluoromethyl)phenyl)-9-(4-((1-(3-fluoropropyl)azetidin-3-ylidene)methyl)phenyl)-6,7-dihydro-5H-benzo[7]annulene-3-carboxylic acid] | 92 | – | 0.3
O=C(O)c1ccc2c(c1)CCCC(c1c(Cl)cccc1OC(F)(F)F)=C2c1ccc(C=C2CN(CCCF)C2)cc1 [Compound 17, 8-(2-chloro-6-(trifluoromethoxy)phenyl)-9-(4-((1-(3-fluoropropyl)azetidin-3-ylidene)methyl)phenyl)-6,7-dihydro-5H-benzo[7]annulene-3-carboxylic acid] | 91 | – | 0.5
